Measurements as given in publication PMC6149683, “In Vitro Investigation of the Interaction of Tolbutamide and Losartan with Human Serum Albumin in Hyperglycemia States” (Molecules : A Journal of Synthetic Chemistry and Natural …, 2017).
Read-outs that look alike come from different tables or passages of the source.

Experiments:
[1] = system: T1, non-glycated (HSA) and glycated (gHSAFRC) human serum albumin, Sudlow's site I and II; experiment: Binding of fluorescent site-marker probes to glycated versus non-glycated albumin (fluorimetric titration)
T1 construct: human serum albumin (HSA, Lot No. 8234H) with fatty acids (fraction V) was purchased from MP Biomedicals LLC; purchased MP Biomedicals LLC (Illkirch, France) Lot No. 8234H (a lot number; no catalogue number given)

plasma protein = conditions: cited from earlier work
[2] = albumin 5 × 10^−6 mol∙L^−1 titrated with probe, 37 °C, Figure 7

| Compound | probe fluorescence / binding with gHSAFRC compared with HSA [1, 2] | further results |
| --- | --- | --- |
| CN(C)c1cccc2c(S(=O)(=O)N3CCC[C@H]3C(=O)O)cccc12 [dPro, N-dansyl-L-proline] | stronger for glycated than non-modified albumin | – |
| CC(=O)CC(c1ccccc1)c1c(O)c2ccccc2oc1=O (centres unmarked) [WAR, warfarin] | – | probe fluorescence / binding with gHSAFRC compared with HSA [1]: stronger than with non-glycated albumin |
| CN(C)c1cccc2c(S(=O)(=O)N[C@@H](CCC(N)=O)C(=O)O)cccc12 [dGln, dansyl-L-glutamine] | stronger for glycated than non-modified albumin | – |
| CCCCc1nc(Cl)c(CO)n1Cc1ccc(-c2ccccc2-c2nn[nH]n2)cc1 [LOS, (2-butyl-4-chloro-1-{[2′-(1H-tetrazol-5-yl)-4-biphenylyl]methyl}-1H-imidazol-5-yl)methanol] | – | bound with plasma protein (plasma protein): 98.6–98.8% |
| CN(C)c1cccc2c(S(N)(=O)=O)cccc12 [DNSA, 5-dimethylaminonaphthalene-1-sulfonamide] | no significant difference in the fluorescence intensity | – |
